# What was measured:
# MCF7 [1] = assay: Inhibition of cell migration of human MCF7 cells assessed as relative distance between the edges of the wound at 4 uM incubated for 12 hrs by wound healing assay (reference value: 87.55%); assay type: functional; parameters: scale not given: the % may be the effect or the level left
# MCF7 [2] = assay: Induction of apoptosis in human MCF7 cells incubated for 24 hrs by Annexin V-FITC/PI double staining based flow cytometry analysis; assay type: functional, cell-based
# MCF7 [3] = assay: Induction of apoptosis in human MCF7 cells at 4 uM by Annexin V-FITC/PI double staining based flow cytometry analysis; assay type: functional, cell-based; details: TDE = time-dependent effect
# MCF7 [4] = assay: Suppression of mitochondrial membrane potential in human MCF7 cells assessed as increase in green fluorescent cells incubated for 12 hrs by rhodamine-123 dye based flow cytometry analysis; assay type: functional, cell-based
# MCF7 [5] = assay: Inhibition of cell migration of human MCF7 cells assessed as relative distance between the edges of the wound at 4 uM incubated for 24 hrs by wound healing assay (reference value: 87.55%); assay type: functional; parameters: scale not given: the % may be the effect or the level left
# [6] = biological target: Vascular endothelial growth factor receptor 2 (Homo sapiens, UniProt P35968); assay: Inhibition of VEGFR2 (unknown origin) incubated for 30 mins by enzyme immunoassay
# [7] = biological target: Epidermal growth factor receptor (Homo sapiens, UniProt P00533); assay: Inhibition of EGFR (unknown origin) incubated for 30 mins by enzyme immunoassay
# [8] = biological target: Fibroblast growth factor receptor 1 (Homo sapiens, UniProt P11362); assay: Inhibition of bFGFR (unknown origin) incubated for 30 mins by enzyme immunoassay
# HeLa = assay: Antiproliferative activity against human HeLa cells assessed as inhibition of cell proliferation incubated for 48 hrs by MTT assay; assay type: functional, cell-based
# HepG2 = assay: Antiproliferative activity against human HepG2 cells assessed as inhibition of cell proliferation incubated for 48 hrs by MTT assay; assay type: functional, cell-based; details: HepG2, 48 h
# MCF7 [9] = assay: Antiproliferative activity against human MCF7 cells assessed as inhibition of cell proliferation incubated for 48 hrs by MTT assay; assay type: functional, cell-based; details: MCF7, 48 h
# [10] = Cytotoxicity in HEK293T cells assessed as reduction in cell viability incubated for 48 hrs by MTT assay; assay type: cell-based, HEK-293T; details: human
# MCF7 [11] = assay: Induction of apoptosis in human MCF7 cells assessed as viable cells level at 2 uM incubated for 24 hrs by Annexin V-FITC/PI double staining based flow cytometry analysis (reference value: 82%); assay type: functional
# MCF7 [12] = assay: Induction of apoptosis in human MCF7 cells assessed as early apoptotic cells level at 2 uM incubated for 24 hrs by Annexin V-FITC/PI double staining based flow cytometry analysis (reference value: 6.37%); assay type: functional
# MCF7 [13] = assay: Induction of apoptosis in human MCF7 cells assessed as late apoptotic cells level at 2 uM incubated for 24 hrs by Annexin V-FITC/PI double staining based flow cytometry analysis (reference value: 10.1%); assay type: functional
# MCF7 [14] = assay: Induction of apoptosis in human MCF7 cells assessed as late necrotic cells level at 2 uM incubated for 24 hrs by Annexin V-FITC/PI double staining based flow cytometry analysis (reference value: 1.49%); assay type: functional
# MCF7 [15] = assay: Induction of apoptosis in human MCF7 cells assessed as viable cells level at 4 uM incubated for 24 hrs by Annexin V-FITC/PI double staining based flow cytometry analysis (reference value: 82%); assay type: functional
# MCF7 [16] = assay: Induction of apoptosis in human MCF7 cells assessed as early apoptotic cells level at 8 uM incubated for 24 hrs by Annexin V-FITC/PI double staining based flow cytometry analysis (reference value: 6.37%); assay type: functional
# MCF7 [17] = assay: Induction of apoptosis in human MCF7 cells assessed as late apoptotic cells level at 8 uM incubated for 24 hrs by Annexin V-FITC/PI double staining based flow cytometry analysis (reference value: 10.1%); assay type: functional
# MCF7 [18] = assay: Induction of apoptosis in human MCF7 cells assessed as late necrotic cells level at 8 uM incubated for 24 hrs by Annexin V-FITC/PI double staining based flow cytometry analysis (reference value: 1.49%); assay type: functional
# MCF7 [19] = assay: Induction of apoptosis in human MCF7 cells assessed as viable cells level at 4 uM incubated for 12 hrs by Annexin V-FITC/PI double staining based flow cytometry analysis (reference value: 89%); assay type: functional
# MCF7 [20] = assay: Induction of apoptosis in human MCF7 cells assessed as early apoptotic cells level at 4 uM incubated for 12 hrs by Annexin V-FITC/PI double staining based flow cytometry analysis (reference value: 1.06%); assay type: functional
# MCF7 [21] = assay: Induction of apoptosis in human MCF7 cells assessed as late apoptotic cells level at 4 uM incubated for 12 hrs by Annexin V-FITC/PI double staining based flow cytometry analysis (reference value: 3.1%); assay type: functional
# MCF7 [22] = assay: Induction of apoptosis in human MCF7 cells assessed as viable cells level at 4 uM incubated for 24 hrs by Annexin V-FITC/PI double staining based flow cytometry analysis (reference value: 89%); assay type: functional
# MCF7 [23] = assay: Induction of apoptosis in human MCF7 cells assessed as early apoptotic cells level at 4 uM incubated for 24 hrs by Annexin V-FITC/PI double staining based flow cytometry analysis (reference value: 1.06%); assay type: functional
# MCF7 [24] = assay: Induction of apoptosis in human MCF7 cells assessed as late apoptotic cells level at 4 uM incubated for 24 hrs by Annexin V-FITC/PI double staining based flow cytometry analysis (reference value: 3.1%); assay type: functional
# MCF7 [25] = assay: Induction of apoptosis in human MCF7 cells assessed as viable cells level at 4 uM incubated for 36 hrs by Annexin V-FITC/PI double staining based flow cytometry analysis (reference value: 89%); assay type: functional
# MCF7 [26] = assay: Induction of apoptosis in human MCF7 cells assessed as early apoptotic cells level at 4 uM incubated for 36 hrs by Annexin V-FITC/PI double staining based flow cytometry analysis (reference value: 1.06%); assay type: functional
# MCF7 [27] = assay: Induction of apoptosis in human MCF7 cells assessed as late apoptotic cells level at 4 uM incubated for 36 hrs by Annexin V-FITC/PI double staining based flow cytometry analysis (reference value: 3.1%); assay type: functional
# MCF7 [28] = assay: Induction of apoptosis in human MCF7 cells assessed as late necrotic cells level at 4 uM incubated for 36 hrs by Annexin V-FITC/PI double staining based flow cytometry analysis (reference value: 6.88%); assay type: functional
# MCF7 [29] = assay: Suppression of mitochondrial membrane potential in human MCF7 cells assessed as red fluorescent cells level at 2 uM incubated for 12 hrs by rhodamine-123 dye based flow cytometry analysis (reference value: 99.71%); assay type: functional
# MCF7 [30] = assay: Suppression of mitochondrial membrane potential in human MCF7 cells assessed as green fluorescent cells level at 2 uM incubated for 12 hrs by rhodamine-123 dye based flow cytometry analysis (reference value: 0.29%); assay type: functional
# MCF7 [31] = assay: Suppression of mitochondrial membrane potential in human MCF7 cells assessed as red fluorescent cells level at 4 uM incubated for 12 hrs by rhodamine-123 dye based flow cytometry analysis (reference value: 99.71%); assay type: functional
# MCF7 [32] = assay: Suppression of mitochondrial membrane potential in human MCF7 cells assessed as green fluorescent cells level at 4 uM incubated for 12 hrs by rhodamine-123 dye based flow cytometry analysis (reference value: 0.29%); assay type: functional
# MCF7 [33] = assay: Suppression of mitochondrial membrane potential in human MCF7 cells assessed as green fluorescent cells level at 8 uM incubated for 12 hrs by rhodamine-123 dye based flow cytometry analysis (reference value: 0.29%); assay type: functional
# Chain of Epidermal growth factor receptor (P00533 whole entry): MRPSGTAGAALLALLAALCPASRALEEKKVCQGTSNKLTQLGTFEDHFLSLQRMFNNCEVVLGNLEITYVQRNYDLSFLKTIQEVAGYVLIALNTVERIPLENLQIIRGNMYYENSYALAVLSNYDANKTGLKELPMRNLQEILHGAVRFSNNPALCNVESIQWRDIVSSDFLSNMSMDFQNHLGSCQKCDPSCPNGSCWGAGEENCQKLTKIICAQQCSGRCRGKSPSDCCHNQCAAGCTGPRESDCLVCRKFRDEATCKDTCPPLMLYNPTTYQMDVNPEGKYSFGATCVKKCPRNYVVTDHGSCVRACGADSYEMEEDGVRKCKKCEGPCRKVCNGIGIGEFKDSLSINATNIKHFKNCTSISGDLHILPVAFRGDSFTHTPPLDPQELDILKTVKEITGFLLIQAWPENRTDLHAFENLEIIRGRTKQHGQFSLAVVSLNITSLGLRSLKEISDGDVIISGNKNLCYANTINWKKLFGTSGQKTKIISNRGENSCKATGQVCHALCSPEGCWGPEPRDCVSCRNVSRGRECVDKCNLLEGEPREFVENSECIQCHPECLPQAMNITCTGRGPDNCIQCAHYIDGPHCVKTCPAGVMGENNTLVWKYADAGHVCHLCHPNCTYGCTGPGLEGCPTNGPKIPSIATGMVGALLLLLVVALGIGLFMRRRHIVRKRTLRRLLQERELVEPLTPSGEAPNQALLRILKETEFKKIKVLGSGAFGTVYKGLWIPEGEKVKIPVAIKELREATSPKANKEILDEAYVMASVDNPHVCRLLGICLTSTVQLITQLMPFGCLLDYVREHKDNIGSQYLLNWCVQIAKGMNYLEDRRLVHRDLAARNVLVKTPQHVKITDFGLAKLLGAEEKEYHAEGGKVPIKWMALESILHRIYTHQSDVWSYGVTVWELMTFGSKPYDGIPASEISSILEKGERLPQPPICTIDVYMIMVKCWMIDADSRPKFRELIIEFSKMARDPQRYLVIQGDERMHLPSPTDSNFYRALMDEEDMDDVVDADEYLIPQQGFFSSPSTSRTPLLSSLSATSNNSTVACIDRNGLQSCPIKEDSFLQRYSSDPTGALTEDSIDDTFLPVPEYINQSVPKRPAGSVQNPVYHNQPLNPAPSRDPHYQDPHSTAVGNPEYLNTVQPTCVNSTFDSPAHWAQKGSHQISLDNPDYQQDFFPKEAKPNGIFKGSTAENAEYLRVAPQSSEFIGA
# Chain of Fibroblast growth factor receptor 1 (P11362 whole entry): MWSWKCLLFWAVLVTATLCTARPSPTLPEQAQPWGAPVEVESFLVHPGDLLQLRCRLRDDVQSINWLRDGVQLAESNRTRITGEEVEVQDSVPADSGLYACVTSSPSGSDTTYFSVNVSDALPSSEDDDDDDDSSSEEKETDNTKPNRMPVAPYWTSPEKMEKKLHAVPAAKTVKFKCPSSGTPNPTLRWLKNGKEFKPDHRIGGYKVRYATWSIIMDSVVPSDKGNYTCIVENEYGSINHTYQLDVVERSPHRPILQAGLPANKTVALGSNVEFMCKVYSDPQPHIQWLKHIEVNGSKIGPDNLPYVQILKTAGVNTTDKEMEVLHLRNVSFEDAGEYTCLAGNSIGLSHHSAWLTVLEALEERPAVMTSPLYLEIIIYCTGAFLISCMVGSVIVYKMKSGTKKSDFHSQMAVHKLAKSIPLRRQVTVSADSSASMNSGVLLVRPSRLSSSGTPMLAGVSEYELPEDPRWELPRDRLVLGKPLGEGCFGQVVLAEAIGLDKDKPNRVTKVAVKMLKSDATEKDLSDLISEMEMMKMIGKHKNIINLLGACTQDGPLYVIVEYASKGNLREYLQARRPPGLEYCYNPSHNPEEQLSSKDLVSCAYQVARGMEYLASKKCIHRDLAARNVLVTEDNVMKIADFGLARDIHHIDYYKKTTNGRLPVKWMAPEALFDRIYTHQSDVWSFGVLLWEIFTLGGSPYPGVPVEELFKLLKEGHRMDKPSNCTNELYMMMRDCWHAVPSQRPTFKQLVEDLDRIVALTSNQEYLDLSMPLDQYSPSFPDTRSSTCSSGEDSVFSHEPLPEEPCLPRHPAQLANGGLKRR
# Chain of Vascular endothelial growth factor receptor 2 (P35968 whole entry): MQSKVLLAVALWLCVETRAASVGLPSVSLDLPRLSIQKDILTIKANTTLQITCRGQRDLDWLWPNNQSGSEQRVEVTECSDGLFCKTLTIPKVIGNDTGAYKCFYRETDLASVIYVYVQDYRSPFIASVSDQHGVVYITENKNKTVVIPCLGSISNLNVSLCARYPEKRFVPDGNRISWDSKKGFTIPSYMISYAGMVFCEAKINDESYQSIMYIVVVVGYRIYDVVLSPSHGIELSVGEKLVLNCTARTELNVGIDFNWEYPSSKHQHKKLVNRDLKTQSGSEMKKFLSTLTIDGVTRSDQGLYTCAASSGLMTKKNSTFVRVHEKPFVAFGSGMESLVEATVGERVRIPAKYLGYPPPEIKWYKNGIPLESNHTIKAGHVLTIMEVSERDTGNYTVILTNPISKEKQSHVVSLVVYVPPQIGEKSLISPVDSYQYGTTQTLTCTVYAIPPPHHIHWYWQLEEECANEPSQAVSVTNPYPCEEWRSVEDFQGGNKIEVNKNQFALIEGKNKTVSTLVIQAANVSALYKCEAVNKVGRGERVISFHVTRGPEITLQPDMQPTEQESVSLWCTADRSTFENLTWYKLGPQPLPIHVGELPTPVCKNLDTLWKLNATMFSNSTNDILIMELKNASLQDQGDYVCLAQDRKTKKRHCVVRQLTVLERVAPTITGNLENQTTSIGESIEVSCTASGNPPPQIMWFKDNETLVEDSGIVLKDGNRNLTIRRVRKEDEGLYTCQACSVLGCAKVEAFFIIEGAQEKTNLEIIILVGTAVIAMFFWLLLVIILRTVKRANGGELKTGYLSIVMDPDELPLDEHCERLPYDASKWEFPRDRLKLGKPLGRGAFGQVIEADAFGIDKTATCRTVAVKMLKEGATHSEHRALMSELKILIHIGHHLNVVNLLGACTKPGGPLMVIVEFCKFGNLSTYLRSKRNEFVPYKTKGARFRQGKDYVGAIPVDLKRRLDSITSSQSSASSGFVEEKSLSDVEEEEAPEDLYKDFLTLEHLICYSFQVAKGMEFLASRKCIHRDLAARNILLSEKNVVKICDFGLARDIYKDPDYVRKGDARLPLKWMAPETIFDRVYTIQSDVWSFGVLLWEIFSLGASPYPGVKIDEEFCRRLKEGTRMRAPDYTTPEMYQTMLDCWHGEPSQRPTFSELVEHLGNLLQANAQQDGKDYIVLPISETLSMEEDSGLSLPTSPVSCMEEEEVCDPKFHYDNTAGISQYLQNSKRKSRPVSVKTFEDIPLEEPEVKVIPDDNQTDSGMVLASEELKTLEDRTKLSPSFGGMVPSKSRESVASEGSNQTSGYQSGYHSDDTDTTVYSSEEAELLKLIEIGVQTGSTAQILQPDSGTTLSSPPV
structure (smiles),measurement,setting,value
Cc1ccc(-n2cc(NC(=O)c3cccc(NS(=O)(=O)c4ccc(Cl)cc4)c3)cn2)cc1,Activity,MCF7 [1],90.9%
same,Activity,MCF7 [2],Dose-dependent effect
same,Activity,MCF7 [3],Tde
same,Activity,MCF7 [4],Dose-dependent effect
same,Activity,MCF7 [5],77.3%
same,IC50,[6],0.34 µM
same,IC50,[7],8.77 µM
same,IC50,[8],17.2 µM
same,IC50,HeLa,4.57 µM
same,IC50,HepG2,2.44 µM
same,IC50,MCF7 [9],1.08 µM
same,CC50 at 48 h,[10],110 µM
same,Activity,MCF7 [11],70.3%
same,Activity,MCF7 [12],9.7%
same,Activity,MCF7 [13],17.7%
same,Activity,MCF7 [14],2.32%
same,Activity,MCF7 [15],64%
same,Activity,MCF7 [16],9.62%
same,Activity,MCF7 [17],45.2%
same,Activity,MCF7 [18],3.76%
same,Activity,MCF7 [19],65.6%
same,Activity,MCF7 [20],22.7%
same,Activity,MCF7 [21],11.3%
same,Activity,MCF7 [22],58.5%
same,Activity,MCF7 [23],21.6%
same,Activity,MCF7 [24],18.7%
same,Activity,MCF7 [25],47.6%
same,Activity,MCF7 [26],30.4%
same,Activity,MCF7 [27],20.9%
same,Activity,MCF7 [28],1.03%
same,Activity,MCF7 [29],87.6%
same,Activity,MCF7 [30],12.4%
same,Activity,MCF7 [31],80.6%
same,Activity,MCF7 [32],19.4%
same,Activity,MCF7 [33],37.15%
